Values quoted from earlier work in US20190076366A1, “PHARMACEUTICAL COMPOSITION OF ENTECAVIR AND PROCESS OF MANUFACTURING” (Pharmascience, Inc., priority 2012, published 2019).

Tests used:
[1] = 25°±0.5° C.

water solubility (in water): 2400 µg/mL | solubility in purified water (purified water): 2400 µg/mL | pH of the saturated solution in water [1]: 7.9
Compound: C=C1C(n2cnc3c(=O)[nH]c(N)nc32)C[C@H](O)[C@H]1CO (stereo partly drawn) [Entecavir, 2-amino-l,9-dihydro-9-[(1S,3R,4S)-4-hydroxy-3-(hydroxymethyl)-2-methylenecyclopentyl]-6H-purin-6-one, monohydrate]
